In US5332739A, “Pyrimidinedione derivatives and antiarrhythmic agents containing same” (Mitsui Toatsu Chemicals, Incorporated, priority 1990, dated 1994) one finds percent prolongation of action potential duration (APD75) and change in vivo data, which are given here for 16 molecules.

Counter-ions that a name gives are not always drawn.

Experiment [1] has as its system Purkinje fiber of the right ventricular free wall. Description: Influence on Myocardial Action Potential Duration Time (APD75). The note with it: Canis lupus familiaris, 20 min, 20 minutes' incubation, 1 Hz, 37° C.; for percent prolongation of action potential duration (APD75) at 3 µg/mL: Dose 3.0 (μg, ml); for percent prolongation of action potential duration (APD75) at 10 µg/mL: Dose 10.0 (μg, ml); for percent prolongation of action potential duration (APD75) at 1 µg/mL: Dose 1.0 (μg, ml). It is filed as cell-based, hybrid adult dog. As for the experimental part: To a hybrid adult dog, 30 mg/kg of pentobarbital was administered through a vein, and after being anesthetized, the heart was removed. Afterward, the right ventricular free wall of the heart was cut and taken out in a Tyrode solution.
The taken right ventricular free wall was fixed in an incubator at 37° C., and a nutritional solution (20 ml of the Tyrode solution) was refluxed.
In this isolated condition, myocardial action potential duration times (APD75) were measured before and after the administration of the respective compounds prepared in the above examples in Table A and d-sotalol as a control medicine, and APD75 (%) was calculated from the measured results in accordance with the formula: […]
A: APD75 before administration
B: APD75 after administration
Here, APD75 was measured as follows: A field stimulation of 1 Hz was given to the right ventricular free wall, and any variation of an action potential was depicted on an oscilloscope via a glass microelectrode (10 to 20 M.OMEGA.) thrust into a Purkinje fiber of the free wall and via an amplifier. Afterward, a waveform on the oscilloscope was analyzed by the use of a computer, and the time of from a point of the action potential generation to a point of 75% repolarization was measured. This measured time was regarded as the myocardial action potential duration time (APD75).
The compounds and d-sotalol shown in Table A were separately added to the refluxing nutritional solution (20 ml), and after 20 minutes' incubation, APD75 after the administration was calculated from the variation of the myocardial action potential duration time.
Incidentally, this test was carried out in accordance with a Sato et al's method [H. Sato, K. Hashimoto, Arzneimeittel Forschung, 34 (1), 3a, 376-380 (1984)].

For experiment [2], the system named is ventricular muscle (right ventricle). The experiment can be described thus: Influence on Ventricular Muscle Refractory Period (ERP). It is filed as in vivo, mongrel adult dog. The conditions noted are these: Canis lupus familiaris, iv, anesthetized dog, read-out: ERP (%; extensibility of refractory period); for change in vivo at 0.1 mg/kg: Dose 0.1 mg/kg i.v.; for change in vivo at 0.3 mg/kg: Dose 0.3 mg/kg i.v.; for change in vivo at 1 mg/kg: Dose 1.0 mg/kg i.v.; for change in vivo at 3 mg/kg: Dose 3.0 mg/kg i.v. As to the method:
Refractory periods were measured in the following manner before and after each of the compounds and d-sotalol shown an Table A was separately administered to a vein or a duodenum, and ERP (%; extensibility of refractory period) was calculated from the measured values in accordance with the following formula: […]
W: Refractory period after administration
Y: Refractory period before administration
To a mongrel adult dog, 30 mg/kg of pentobarbital was administered intravenously, and after being anesthetized, a pair of silver-silver chloride electrodes separated by 3 mm was sewn on an opened right ventricule, and electrical stimulation was given at an interval of 400 msec at a duration time of 4 msec under a current twice as much as the threshold. Afterward, a small amount of alcohol was injected into a sinus artery in order to extinguish a pacemaker activity, and the ventricular refractory period (ERP) was measured under ventricule pacing.
That is, 1 train comprised 10 stimulations, and an interval between two of the trains was usually 400 msec. At the time of the refractory period measurement, however, the above interval was shortened every 10 smec, and the interval between the trains at the time when reaction to the first stimulation of the train disappeared was regarded as the refractory period.
In this case, the electrical stimulation was fed in accordance with a program by a heart stimulation device (Diamedical Co., Ltd.; DHM-226-3).

In experiment [1], `Cn1c(N2CCN(CCOc3ccccc3)CC2)cc(=O)n(C)c1=O` [Compound 65, 1,3-dimethyl-6-[4-(2-phenoxyethyl)piperazin-1-yl]-2,4(1H,3H)-pyrimidinedione.hydrochloride] returned a percent prolongation of action potential duration (APD75) at 3 µg/mL of 14% and a percent prolongation of action potential duration (APD75) at 10 µg/mL of 17%. For the same molecule, in experiment [2], the change in vivo at 0.1 mg/kg worked out at 0%, the change in vivo at 0.3 mg/kg was 0%, the change in vivo at 1 mg/kg stood at 0% and the change in vivo at 3 mg/kg came to 0%.

In experiment [1], `Cn1c(N2CCN(CCCOc3ccc(F)cc3)CC2)cc(=O)n(C)c1=O` [Compound 1, 1,3-dimethyl-6-[4-(3-[4-fluorophenoxy]propyl)piperazin-1-yl]-2,4(1H,3H)-pyrimidinedione.hydrochloride] showed a percent prolongation of action potential duration (APD75) at 1 µg/mL of 17%, a percent prolongation of action potential duration (APD75) at 3 µg/mL of 22% and a percent prolongation of action potential duration (APD75) at 10 µg/mL of 30%. Further, in experiment [2], the change in vivo at 0.1 mg/kg was 6%, the change in vivo at 0.3 mg/kg was 12%, the change in vivo at 1 mg/kg stood at 15.8% and the change in vivo at 3 mg/kg was 24.3%.

As to `Cn1c(N2CCN(CCCOc3ccc(Cl)cc3Cl)CC2)cc(=O)n(C)c1=O` [Compound 43], in experiment [1], the percent prolongation of action potential duration (APD75) at 3 µg/mL was 13% and the percent prolongation of action potential duration (APD75) at 10 µg/mL stood at 18%. Further, in experiment [2], the change in vivo at 0.1 mg/kg worked out at 0%, the change in vivo at 0.3 mg/kg worked out at 0%, the change in vivo at 1 mg/kg turned out to be 7.7% and the change in vivo at 3 mg/kg turned out to be 19.3%.

For `CCN(CCCc1ccccc1)CCNc1cc(=O)n(C)c(=O)n1C` [Compound 121, 1,3-dimethyl-6-[2-(N-ethyl-3-phenylpropylamino)ethylamino]-2,4(1H,3H)-pyrimidinedione.oxalate], in experiment [1], the percent prolongation of action potential duration (APD75) at 1 µg/mL was determined as 9%, the percent prolongation of action potential duration (APD75) at 3 µg/mL is 14% and the percent prolongation of action potential duration (APD75) at 10 µg/mL was found to be 16%.

In experiment [1], `CSc1ccc(OCCCN2CCN(c3cc(=O)n(C)c(=O)n3C)CC2)c(NS(C)(=O)=O)c1` [Compound 113, 1,3-dimethyl-6-[4-(3-[4-methylmercapto-2-methanesulfonamidophenoxy]propyl)piperazin-1-yl]-2,4(1H,3H)-pyrimidinedione.hydrochloride] gave a percent prolongation of action potential duration (APD75) at 1 µg/mL of 2%, a percent prolongation of action potential duration (APD75) at 3 µg/mL of 17% and a percent prolongation of action potential duration (APD75) at 10 µg/mL of 26%. In experiment [2], the change in vivo at 0.1 mg/kg was 0%, the change in vivo at 0.3 mg/kg amounted to 0% and the change in vivo at 3 mg/kg was 17.6%.

In experiment [1], `Cn1c(N2CCN(CCc3ccccc3)CC2)cc(=O)n(C)c1=O` [Compound 88, 1,3-dimethyl-6-[4-(2-phenylethyl)-piperazin-1-yl]-2,4(1H,3H)-pyrimidinedione.hydrochloride] had a percent prolongation of action potential duration (APD75) at 3 µg/mL of 26% and a percent prolongation of action potential duration (APD75) at 10 µg/mL of 49%. In experiment [2], the change in vivo at 0.1 mg/kg was 2%, the change in vivo at 0.3 mg/kg stood at 6% and the change in vivo at 1 mg/kg came out at 11.7%.

For `Cn1c(N2CCN(CCCOc3ccc(C(=O)c4ccccc4)cc3)CC2)cc(=O)n(C)c1=O` [Compound 9], in experiment [1], the percent prolongation of action potential duration (APD75) at 1 µg/mL came out at 6%, the percent prolongation of action potential duration (APD75) at 3 µg/mL was 21% and the percent prolongation of action potential duration (APD75) at 10 µg/mL was 30%. For the same molecule, in experiment [2], the change in vivo at 0.1 mg/kg is 5.6%, the change in vivo at 0.3 mg/kg was 5.6%, the change in vivo at 1 mg/kg was 11.1% and the change in vivo at 3 mg/kg was determined as 16.7%.

For the molecule `Cn1c(N2CCN(CCCOc3ccc(Cl)cc3C(=O)c3ccccn3)CC2)cc(=O)n(C)c1=O` [Compound 52], in experiment [1], the percent prolongation of action potential duration (APD75) at 1 µg/mL was found to be 9%, the percent prolongation of action potential duration (APD75) at 3 µg/mL is 14% and the percent prolongation of action potential duration (APD75) at 10 µg/mL was found to be 18%.

In experiment [1], `CSc1ccc(OCCCN2CCN(c3cc(=O)n(C)c(=O)n3C)CC2)cc1` [Compound 98, 1,3-dimethyl-6-[4-(3-[4-methylthiophenoxy]propyl)piperazin-1-yl]-2,4 (1H,3H)-pyrimidinedione.hydrochloride] registered a percent prolongation of action potential duration (APD75) at 1 µg/mL of 4%, a percent prolongation of action potential duration (APD75) at 3 µg/mL of 13% and a percent prolongation of action potential duration (APD75) at 10 µg/mL of 25%. In experiment [2], the change in vivo at 0.1 mg/kg was 0%, the change in vivo at 0.3 mg/kg is 0%, the change in vivo at 1 mg/kg is 7.7% and the change in vivo at 3 mg/kg is 15.4%.

For the molecule `Cn1c(N2CCN(CCCOc3ccc(Cl)cc3S(C)(=O)=O)CC2)cc(=O)n(C)c1=O` [Compound 50], in experiment [1], the percent prolongation of action potential duration (APD75) at 1 µg/mL is 6%, the percent prolongation of action potential duration (APD75) at 3 µg/mL stood at 15% and the percent prolongation of action potential duration (APD75) at 10 µg/mL was found to be 26%. Further, in experiment [2], the change in vivo at 0.1 mg/kg amounted to 0%, the change in vivo at 0.3 mg/kg came out at 5.6%, the change in vivo at 1 mg/kg was determined as 5.6% and the change in vivo at 3 mg/kg came to 11.1%.

`Cn1c(NCCN(CCO)CCCc2ccccc2)cc(=O)n(C)c1=O` [Compound 120, 1,3-dimethyl-6-[2-(N-[2-hydroxyethyl]-3-phenylpropylamino)ethylamino]-2,4(1H,3H)-pyrimidinedione.oxalate]: in experiment [1], the percent prolongation of action potential duration (APD75) at 1 µg/mL turned out to be 6%, the percent prolongation of action potential duration (APD75) at 3 µg/mL was 14% and the percent prolongation of action potential duration (APD75) at 10 µg/mL was 26%.

In experiment [1], `CC(C)C(=O)c1ccccc1OCCCN1CCN(c2cc(=O)n(C)c(=O)n2C)CC1` [Compound 25] came in with a percent prolongation of action potential duration (APD75) at 1 µg/mL of 13% and a percent prolongation of action potential duration (APD75) at 3 µg/mL of 26%. For the same molecule, in experiment [2], the change in vivo at 0.1 mg/kg is 0%, the change in vivo at 0.3 mg/kg was determined as 0%, the change in vivo at 1 mg/kg came to 0% and the change in vivo at 3 mg/kg worked out at 7.6%.

In experiment [1], `Cn1c(N2CCN(CCCOc3ccc(C(=O)c4ccccc4)cc3F)CC2)cc(=O)n(C)c1=O` [Compound 58] registered a percent prolongation of action potential duration (APD75) at 1 µg/mL of 19%, a percent prolongation of action potential duration (APD75) at 3 µg/mL of 29% and a percent prolongation of action potential duration (APD75) at 10 µg/mL of 36%.

On to `Cn1c(N2CCN(CCCOc3ccc(Cl)cc3C(=O)c3ccccc3)CC2)cc(=O)n(C)c1=O` [Compound 51], for which, in experiment [1] (Dose 0.3 (μg, ml)), the percent prolongation of action potential duration (APD75) at 0.3 µg/mL amounted to 11%. Further, in experiment [1], the percent prolongation of action potential duration (APD75) at 1 µg/mL amounted to 19% and the percent prolongation of action potential duration (APD75) at 3 µg/mL was 24%. Moreover, in experiment [2], the change in vivo at 0.1 mg/kg was found to be 0%, the change in vivo at 0.3 mg/kg came to 6.3%, the change in vivo at 1 mg/kg is 6.3% and the change in vivo at 3 mg/kg is 12.5%.

On to `Cn1c(N2CCN(CCCOc3ccc(NS(C)(=O)=O)cc3Cl)CC2)cc(=O)n(C)c1=O` [Compound 111, 1,3-dimethyl-6-[4-(3-[2-chloro-4-methanesulfonamidophenoxy]propyl)piperazin-1-yl]-2,4(1H,3H)-pyrimidinedione.hydrochloride], for which, in experiment [1], the percent prolongation of action potential duration (APD75) at 3 µg/mL was 19% and the percent prolongation of action potential duration (APD75) at 10 µg/mL came to 36%. Moreover, in experiment [2], the change in vivo at 0.1 mg/kg was determined as 0%, the change in vivo at 0.3 mg/kg was 2.4%, the change in vivo at 1 mg/kg was found to be 8.6% and the change in vivo at 3 mg/kg amounted to 15.2%.

With `Cn1c(N2CCN(CCCOc3ccccc3C(=O)C3CCCC3)CC2)cc(=O)n(C)c1=O` [Compound 39], in experiment [1], the percent prolongation of action potential duration (APD75) at 3 µg/mL is 26% and the percent prolongation of action potential duration (APD75) at 10 µg/mL worked out at 48%.
